# According to patent US6066656A, “2,5-diamino-3,4-disubstituted-1,6-diphenylhexane isosteres comprising benzamide, sulfonamide and anthranilamide subunits and methods of using same” (The United States of America as represented by the …, priority 1998, dated 2000):
# Read-outs that look alike come from different tables or passages of the source.
# Tests used:
# [1] = test system: viral activity; conditions: cited from earlier work
# [2] = biological target: T1, HIV-1 protease (wild-type, WT) (Human immunodeficiency virus type 1 group M subtype B, UniProt P04585); assay: Inhibition of purified wild-type HIV-1 protease (fluorogenic substrate cleavage), Ki and % inhibition; type: biochemical
# T1 construct: purified HIV-1 protease (wild-type, WT)
# Description: (§1) The inhibition constants (Ki) for the compounds of the above examples were determined using purified HIV-1 protease (wild-type, WT) (Tables I, II, IV and V) and R8Q and V82I mutant HIV-1 proteases (Table III). Ki is an inhibition constant of a given compound as derived by enzyme kinetics. A low Ki represents a high affinity of the compound for the enzyme, i.e., tight binding or low dissociation. Inhibition of the cleavage was assayed using a fluorogenic substrate available from Molecular Probes, Inc., Eugene, Oreg., and described in Kageyama et al., Antimicrob. Agents. Chemother., 37, 272 (1993), and a fluorogenic substrate available from Bachem California, Torrance, Calif., and described in Kageyama et al. (1993), supra. The inhibitory potencies of these compounds are set forth in Tables I-V. Percent inhibition is the percentage inhibition of an enzyme's activity by a given compound at a given concentration.
# [3] = biological target: T2, R8Q mutant HIV-1 protease (Human immunodeficiency virus type 1 group M subtype B, UniProt P04585, R496Q); assay: Inhibition of R8Q mutant HIV-1 protease (fluorogenic substrate cleavage); type: biochemical; conditions: Table III
# T2 construct: R8Q and V82I mutant HIV-1 proteases
# Description: as §1
# [4] = biological target: T3, V82I mutant HIV-1 protease (Human immunodeficiency virus type 1 group M subtype B, UniProt P04585, V570I); assay: Inhibition of V82I mutant HIV-1 protease (fluorogenic substrate cleavage); type: biochemical; conditions: Table III
# T3 construct: R8Q and V82I mutant HIV-1 proteases
# Description: as §1
# [5] = Table III, wild-type HIV protease, read-out: Ki WT
# [6] = Table V, spread wrapped on the next line: DN-1 ± 0.6, DN-4 ± 0.09, DN-5 ± 1.3, DN-6B ± 0.3, DN-10 ± 0.007, DN-11 ± 0.1, read-out: Ki
compound,measurement,setting,value
CC(C)c1nc(CN(C)C(=O)N[C@H](C(=O)N[C@@H](Cc2ccccc2)C[C@H](O)[C@H](Cc2ccccc2)NC(=O)OCc2cncs2)C(C)C)cs1 [ABT538],EC50,[1]; comparison compounds in clinical trials,36 nM
O=C(Cc1ccccc1)N[C@@H](Cc1ccccc1)[C@H](O)[C@H](O)[C@H](Cc1ccccc1)NC(=O)Cc1ccccc1 [Compound 5],inhibition of HIV PR (in words),[2],weak inhibitor of HIV PR
same,inhibition at 10 µM,[2]; read-out: % inhib,38%
O=C(Cc1cccc(O)c1)N[C@@H](Cc1ccccc1)[C@H](O)[C@H](O)[C@H](Cc1ccccc1)NC(=O)Cc1cccc(O)c1 [Compound 5a],inhibition of HIV PR (in words),[2],small improvements in inhibition of HIV PR
same,Ki,"[2]; Table I, read-out: Ki",3000 nM
O=C(Cc1ccccc1O)N[C@@H](Cc1ccccc1)[C@H](O)[C@H](O)[C@H](Cc1ccccc1)NC(=O)Cc1ccccc1O [Compound 5b],inhibition of HIV PR (in words),[2],small improvements in inhibition of HIV PR
same,inhibition at 10 µM,[2]; read-out: % inhib,66%
O=C(N[C@@H](Cc1ccccc1)[C@@H](O)[C@H](O)[C@H](Cc1ccccc1)NC(=O)c1ccccc1)c1ccccc1 [Compound 6],inhibition at 10 µM,[2]; read-out: % inhib,55%
"O=C(N[C@@H](Cc1ccccc1)[C@H](O)[C@H](O)[C@H](Cc1ccccc1)NC(=O)c1cccc(O)c1)c1cccc(O)c1 [Compound 7, (2S,3R,4S,5S)-2,5-bis[((3-hydroxyphenyl)carbonyl)amino]-3,4-dihydroxy-1,6-diphenyl-hexane]",Ki,[3],36 nM
same,inhibition of HIV PR (in words),[2],potent inhibitors of HIV PR
same,Ki,"[2]; Table II, read-out: Ki",22 nM
same,Ki,[2]; [5],22 nM
same,"relative potency, R,S vs R,R diol core (compounds 7 and 8)","[2]; in general, R,S core compared with R,R core",three times more potent
same,Ki,[2]; read-out: Ki,22 nM
same,Ki,[4],51 nM
O=C(N[C@@H](Cc1ccccc1)[C@@H](O)[C@H](O)[C@H](Cc1ccccc1)NC(=O)c1cccc(O)c1)c1cccc(O)c1 [Compound 8],Ki,"[2]; Table II, read-out: Ki",79 nM
O=C(NC(Cc1ccccc1)C(O)C(O)C(Cc1ccccc1)NC(=O)c1cccc(O)c1)c1cccc(O)c1 (stereo not shown) [Compound 9],Ki,"[2]; Table II, read-out: Ki",43 nM
O=C(N[C@@H](Cc1ccccc1)[C@@H](O)[C@H](O)[C@H](Cc1ccccc1)NC(=O)c1ccc(O)cc1)c1ccc(O)cc1 [Compound 10],Ki,"[2]; Table II, read-out: Ki",330 nM
same,Ki,[2]; read-out: Ki,330 nM
O=C(N[C@@H](Cc1ccccc1)[C@@H](O)[C@H](O)[C@H](Cc1ccccc1)NC(=O)c1ccccc1O)c1ccccc1O [Compound 11],inhibition of HIV PR (in words),[2],dramatic loss in enzyme inhibitory potency
same,inhibition at 10 µM,"[2]; at 10 μM, read-out: % inhibition",66%
same,inhibition at 10 µM,[2]; read-out: % inhib,66%
O=C(N[C@@H](Cc1ccccc1)[C@H](O)[C@H](O)[C@H](Cc1ccccc1)NC(=O)c1ccc(O)c(O)c1)c1ccc(O)c(O)c1 [Compound 12],Ki,[3],40 nM
same,Ki,"[2]; Table II, unit nm [sic], read-out: Ki",80 nM
same,Ki,[2]; [5],80 nM
same,Ki,[4],235 nM
O=C(N[C@@H](Cc1ccccc1)[C@H](O)[C@H](O)[C@H](Cc1ccccc1)NC(=O)c1cc(O)cc(O)c1)c1cc(O)cc(O)c1 [Compound 13],Ki,"[2]; Table II, read-out: Ki",700 nM
Cc1cc(O)cc(C(=O)N[C@@H](Cc2ccccc2)[C@H](O)[C@H](O)[C@H](Cc2ccccc2)NC(=O)c2cc(C)cc(O)c2)c1 [Compound 14],Ki,"[2]; Table II, read-out: Ki",1000 nM
Cc1ccc(O)cc1C(=O)N[C@@H](Cc1ccccc1)[C@H](O)[C@H](O)[C@H](Cc1ccccc1)NC(=O)c1cc(O)ccc1C [Compound 15],Ki,[3],89 nM
same,Ki,"[2]; Table II, read-out: Ki",75 nM
same,Ki,[2]; [5],75 nM
same,Ki,[2]; read-out: Ki,75 nM
same,Ki,[4],54 nM
Cc1ccc(C(=O)N[C@@H](Cc2ccccc2)[C@H](O)[C@H](O)[C@H](Cc2ccccc2)NC(=O)c2ccc(C)c(O)c2)cc1O [Compound 16],Ki,"[2]; Table II, read-out: Ki",132 nM
Nc1cccc(C(=O)N[C@@H](Cc2ccccc2)[C@H](O)[C@H](O)[C@H](Cc2ccccc2)NC(=O)c2cccc(N)c2)c1 [Compound 17],Ki,[3],20 nM
same,inhibition of HIV PR (in words),[2],potent inhibitors of HIV PR
same,Ki,"[2]; Table II, read-out: Ki",5 nM
same,Ki,[2]; [5],5 nM
same,Ki,[2]; read-out: Ki,5 nM
same,Ki,[4],109 nM
COCCOCCOc1cccc(C(=O)N[C@@H](Cc2ccccc2)[C@H](O)[C@H](O)[C@H](Cc2ccccc2)NC(=O)c2cccc(OCCOCCOC)c2)c1 [Compound 18],inhibition at 10 µM,[2]; read-out: % inhib,63%
O=C(N[C@@H](Cc1ccccc1)[C@H](O)[C@H](O)[C@H](Cc1ccccc1)NC(=O)c1cccc(OCCOc2ccccc2)c1)c1cccc(OCCOc2ccccc2)c1 [Compound 19],inhibition at 10 µM,[2]; read-out: % inhib,9%
O=C(N[C@@H](Cc1ccccc1)[C@H](O)[C@H](O)[C@H](Cc1ccccc1)NC(=O)c1cc(=O)c2ccccc2o1)c1cc(=O)c2ccccc2o1 [Compound 20],inhibition of HIV PR (in words),[2],diminished binding
same,inhibition at 10 µM,[2]; read-out: % inhib,67%
O=C(N[C@@H](Cc1ccccc1)[C@H](O)[C@H](O)[C@H](Cc1ccccc1)NC(=O)c1cc(O)c2ccccc2n1)c1cc(O)c2ccccc2n1 [Compound 21],inhibition of HIV PR (in words),[2],diminished binding
same,inhibition at 10 µM,[2]; read-out: % inhib,31%
O=C(N[C@@H](Cc1ccccc1)[C@H](O)[C@H](O)[C@H](Cc1ccccc1)NC(=O)c1cccc([N+](=O)[O-])c1)c1cccc([N+](=O)[O-])c1 [Compound 22],inhibition at 10 µM,[2]; read-out: % inhib,40%
O=C(N[C@@H](Cc1ccccc1)[C@@H](O)[C@H](O)[C@H](Cc1ccccc1)NC(=O)c1cccnc1)c1cccnc1 [Compound 23],Ki,"[2]; Table II, read-out: Ki",400 nM
O=C(N[C@@H](Cc1ccccc1)C[C@H](O)[C@H](Cc1ccccc1)NC(=O)c1cccc(O)c1)c1cccc(O)c1 [Compound 24],Ki,[3],34 nM
same,inhibition of HIV PR (in words),[2],did not improve the inhibitory potencies
same,Ki,"[2]; Table II, read-out: Ki",25 nM
same,Ki,[2]; [5],25 nM
same,Ki,[4],96 nM
Nc1cccc(C(=O)N[C@@H](Cc2ccccc2)C[C@H](O)[C@H](Cc2ccccc2)NC(=O)c2cccc(N)c2)c1 [Compound 25],inhibition of HIV PR (in words),[2],did not improve the inhibitory potencies
same,Ki,"[2]; Table II, read-out: Ki",6 nM
CC(=O)Nc1ccccc1C(=O)N[C@@H](Cc1ccccc1)[C@H](O)[C@H](O)[C@H](Cc1ccccc1)NC(=O)c1ccccc1NC(C)=O [Compound 26],Ki,"[2]; Table IV, read-out: Ki",41 nM
same,Ki,[2]; read-out: Ki,41 nM
CCOC(=O)Nc1ccccc1C(=O)N[C@@H](Cc1ccccc1)[C@H](O)[C@H](O)[C@H](Cc1ccccc1)NC(=O)c1ccccc1NC(=O)OCC [Compound 28],inhibition at 10 µM,"[2]; Table IV, @ 10 μM, read-out: % inhibition",41%
O=C(CO)Nc1ccccc1C(=O)N[C@@H](Cc1ccccc1)[C@H](O)[C@H](O)[C@H](Cc1ccccc1)NC(=O)c1ccccc1NC(=O)CO [Compound 29],Ki,"[2]; Table IV, read-out: Ki",41 nM
O=C(Nc1ncccc1C(=O)N[C@@H](Cc1ccccc1)[C@H](O)[C@H](O)[C@H](Cc1ccccc1)NC(=O)c1cccnc1NC(=O)OCc1ccccc1)OCc1ccccc1 [Compound 30],Ki,"[2]; Table IV, read-out: Ki",3 nM
Cc1cccc(C(=O)N[C@@H](Cc2ccccc2)[C@H](O)[C@H](O)[C@H](Cc2ccccc2)NC(=O)c2cccc(C)c2NC(=O)OCc2ccccc2)c1NC(=O)OCc1ccccc1 [Compound 31],Ki,"[2]; Table IV, read-out: Ki",12 nM
O=C(Nc1c(Cl)cccc1C(=O)N[C@@H](Cc1ccccc1)[C@H](O)[C@H](O)[C@H](Cc1ccccc1)NC(=O)c1cccc(Cl)c1NC(=O)OCc1ccccc1)OCc1ccccc1 [Compound 32],Ki,"[2]; Table IV, read-out: Ki",91 nM
O=C(Nc1c(O)cccc1C(=O)N[C@@H](Cc1ccccc1)[C@H](O)[C@H](O)[C@H](Cc1ccccc1)NC(=O)c1cccc(O)c1NC(=O)OCc1ccccc1)OCc1ccccc1 [Compound 33],Ki,"[2]; Table IV, read-out: Ki",20 nM
O=C(Nc1ccccc1C(=O)N[C@@H](Cc1ccccc1)C[C@H](O)[C@H](Cc1ccccc1)NC(=O)c1ccccc1NC(=O)OCc1ccccc1)OCc1ccccc1 [Compound 35],Ki,"[2]; Table IV, read-out: Ki",1.2 nM
CC(C)[C@H](NC(=O)N(C)Cc1ccccn1)C(=O)N[C@@H](Cc1ccccc1)[C@H](O)[C@H](O)[C@H](Cc1ccccc1)NC(=O)[C@@H](NC(=O)N(C)Cc1ccccn1)C(C)C [Compound A77003],EC50,"[1]; comparison compound in clinical trials, no unit printed (Ho et al.)",200 nM
O=C(N[C@@H](Cc1ccccc1)[C@H](O)[C@H](O)[C@H](Cc1ccccc1)NC(=O)c1cccc(O)c1)OCc1ccccc1 [DN-1],Ki,[2]; [6],11.9 nM
O=C(Nc1ccccc1C(=O)N[C@@H](Cc1ccccc1)[C@H](O)[C@H](O)[C@H](Cc1ccccc1)NC(=O)c1cccc(O)c1)OCc1ccccn1 [DN-4],Ki,[2]; [6],1.7 nM
CC(C)(C)OC(=O)Nc1ccc(C(=O)N[C@@H](Cc2ccccc2)[C@@H](O)[C@@H](O)[C@H](Cc2ccccc2)NC(=O)OCc2ccccc2)cc1 [DN-5],Ki,[2]; [6],15.8 nM
Nc1ccc(C(=O)N[C@@H](Cc2ccccc2)[C@@H](O)[C@@H](O)[C@H](Cc2ccccc2)NC(=O)c2ccccc2NC(=O)OCc2ccccn2)cc1 [DN-6B],Ki,[2]; [6],6.6 nM
CC(C)(C)OC(=O)Nc1ccc(C(=O)N[C@@H](Cc2ccccc2)[C@@H](O)[C@@H](O)[C@H](Cc2ccccc2)NC(=O)c2ccccc2NC(=O)OCc2ccccn2)cc1 [DN-6],inhibition at 1 µM,"[2]; Table V, @ 1 μM, read-out: % inhibition (printed after % Inhib. Conc.)",15%
same,% Inhib. Conc.,"[2]; Table V, @ 10 NM (so in the source)",40%
CC(C)(C)OC(=O)N[C@@H](Cc1ccccc1)[C@@H](O)[C@@H](O)[C@H](Cc1ccccc1)NC(=O)OCc1ccccc1 [DN-10],Ki,[2]; [6],3.09 nM
O=C(Nc1ccccc1C(=O)N[C@@H](Cc1ccccc1)[C@@H](O)[C@@H](O)[C@H](Cc1ccccc1)NC(=O)c1cccc(O)c1)OCc1ccccn1 [ND-4],Ki,[2]; [6],0.7 nM
